Like-named read-outs stand apart in the source and are kept apart here.

Data set [1] addresses T1, CD40 (Homo sapiens, UniProt P25942). The data set can be described thus: DC cell activation assay system (monocyte-derived DCs, CD40L stimulation). The class given is cell-based. Further details: endogenous in cells; host or cells: human PBMCs (CD19+ B cells read out). From the text:
CD40 is highly expressed on dendritic cells (DCs), and CD40L, upon binding to CD40, can induce DC activation, up-regulate the expression of multiple activation markers on the DC Cell surface, and promote the secretion of multiple inflammatory factors from DCs, further amplifying immune responses. CD40 antagonistic antibodies block the binding of CD40L to CD40, thereby eliminating the immune activation process of DC cells.
Monocytes were sorted and enriched from fresh primary human peripheral blood PBMCs using the EsaySep™ human CD14 sorting kit (Stemcell, 19359), and differentiated for 6 days with RPMI-1640 medium (10% FBS, 1% penicillin-streptomycin), 50 ng/mL IL-4 (PeproTech, 200-04) and 50 ng/mL GM-CSF (PeproTech, 300-03). On day 7, the differentiated DC cells were plated at 1E5/well into a 96-well cell culture plate. Serially diluted test antibodies were added to the wells, and the cells were co-incubated at 37° C. in 5% CO2 for 0.5 h. CD40L-his and an anti-His antibody were then added to each well at final concentrations. After 48 h of culture, the level of DC cell activation was measured by flow cytometry: after centrifugation, the supernatant was removed, and the cells were washed twice with FACS buffer (PBS+2% FBS) and stained at room temperature for 15 min with 100 μL of Fixable viability dye EF780 (Invitrogen, 65086514) diluted at 1:1000. The cells were washed twice and then blocked at room temperature for 10 min with 100 μL of human Fc blocker (BD, 564220) diluted at 1:200. After centrifugation, the cells were incubated at 4° C. for 0.5 h with flow cytometry antibodies (Alexa Fluor®700 anti-human CD11c (Biolegend, 337220), Brilliant Violet 421™ anti-human CD80 (Biolegend, 305221), and APC anti-human CD86 (Biolegend, 305412)) diluted at 1:200. After centrifugation, the supernatant was removed, the cells were washed twice with FACS buffer and then resuspended in 200 μL of PBS, and the fluorescence intensity on the cell surface was measured by flow cytometry (BD FACS Celesta).
In addition, the level of cytokine secretion in the supernatant was measured after 24 h (TNFα, Cisbio, 62[…]) and 48 h (IL-12/23 p40, Novus, VAL121) of culture. According to the results shown in Table 14 and FIGS. 3A to 3D, 9E6-L4H2 and 2F12-L4H2 have similar DC cell inhibition activity to the control antibody CFZ533.
With reference to the method in Example 11, the inhibitory activity of the anti-CD40 antibodies 2F12-L4H2-AAYTE and 9E6-L4H2-AAYTE, which carry the AAYTE mutation in the Fc, in the DC cell activation assay system was measured.

The target of data set [2] is T1, CD40. Briefly: FACS binding of human-rabbit chimeric anti-CD40 antibodies to Raji cells. The method, then: Raji cells are of a tumor cell line that overexpresses human CD40. 2E5 Raji cells were inoculated onto a 96-well plate. 100 μL of a test antibody was added, with the highest final concentration of 100 nM. The antibody was 5-fold diluted to 8 concentrations. The plate was incubated at 4° C. for 1 h. The plate was washed once with wash buffer, and an AF647-conjugated anti-human IgG antibody (Jackson Immunoresearch Laborotories, Cat. #205-609-088) was added at a dilution ratio of 1:500. The plate was incubated at 4° C. for 30 min. The plate was washed once with wash buffer, and fluorescence intensity was measured using a flow cytometer. The binding EC50 values of the anti-CD40 antibodies for CD40 were calculated. The anti-CD40 antagonistic antibody CFZ533 (i.e., iscalimab, Nova) was used as a positive control, and the heavy and light chain variable region sequences were derived from sequence 5 and sequence 2 of U.S. Pat. No. 8,277,810B, respectively.

Data set [3] concerns human CD40 transgenic mice. Briefly: Mouse skin graft rejection model. The class given is in vivo. From the text: Male Balb/c mice, 6 weeks old, were purchased from the Laboratory Animal Management Department, Shanghai Institute of Planned Parenthood Research. Housing environment: SPF; certification number: 20180006023393.
On day −2 of the experiment, the mice were intraperitoneally injected with tacrolimus FK506 or CD40 antagonistic antibodies. On day 0 of the experiment, donor Balb/c mice and C57BL6/J mice were anesthetized with 4% chloral hydrate. The tails of the donor mice were removed, and full circles of skin, 1 cm in length, were isolated from the tails. The hair on the acceptor mice's back was removed, and an incision was made along the skin layer. An equal area of skin was removed while preserving the back fat and connective tissue. The donor skin was placed on the acceptor mice's incision site, and the incision was closed with glue. The mice were then placed back in cages to recover.
The mice were dosed according to the administration regimens in Table 17. After 7 days of recovery, the mouse skin survival was observed daily and rejection scores were recorded.

Data set [4] is described as follows: PK assay in human CD40 transgenic mice. The class given is in vivo, mouse. The following applies: hCD40 transgenic mice, 10 mg/kg intraperitoneal, plasma. From the text:
The plate was washed three times with wash buffer.

T1 sequence (P25942 21-277): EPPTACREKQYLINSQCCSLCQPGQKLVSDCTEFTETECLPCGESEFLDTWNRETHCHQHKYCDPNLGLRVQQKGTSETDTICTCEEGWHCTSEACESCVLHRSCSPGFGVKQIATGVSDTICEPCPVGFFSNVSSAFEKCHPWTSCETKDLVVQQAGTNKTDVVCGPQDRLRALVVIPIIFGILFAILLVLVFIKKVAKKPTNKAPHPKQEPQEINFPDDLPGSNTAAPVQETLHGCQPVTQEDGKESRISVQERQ

With “CFZ533: anti-CD40 antagonistic antibody (iscalimab), positive control; variable regions from U.S. Pat. No. 8,277,810B [reference compound]”, the IC50 in data set [1] (48 h culture, read-out: IC50 in DC cell activation assay system, CD80 MFI) was 1.19 nM; in data set [1] (48 h culture, read-out: IC50 in DC cell activation assay system, CD86 MFI) it was 1.93 nM; in data set [1] (supernatant, 24 h, read-out: IC50 in DC cell activation assay system, TNFα), 0.35 nM; in data set [1] (supernatant, 48 h, read-out: IC50 in DC cell activation assay system, IL-12/23 p40), 0.68 nM. For the same substance, the EC50 (usually the concentration needed to bring the measured effect to its halfway point) in data set [2] is 2.41 nM. For the same substance, the Skin graft score in data set [3] (8 days, 3 mpk, scale 3 (no rejection) to 0) is 2.7; in data set [3] (8 days, 10 mpk, scale 3 to 0) it was 2.9; in data set [3] (10 days, 3 mpk, scale 3 to 0), 2.1; in data set [3] (10 days, 10 mpk, scale 3 to 0), 2.1; in data set [3] (15 days, 3 mpk, scale 3 to 0), 0; in data set [3] (15 days, 10 mpk, scale 3 to 0) it was 0. The Skin graft score in data set [3] (20 days, 3 mpk, scale 3 to 0) came to 0; in data set [3] (20 days, 10 mpk, scale 3 to 0), 0. Moreover, the “Skin graft survival rate (%)” value in data set [3] (Day 15, 3 mpk ip) was found to be 0%; in data set [3] (Day 15, 10 mpk ip), 0%. In addition, the “AUC(0-d 14)” value in data set [4] is on record as 12655 (h)*(mg/L). Also, the Cmax – broadly, the peak of the concentration-time curve – in data set [4] was 75.95 µg/mL. This substance also yielded a T½ in data set [4] of 214.8 h.

Values taken from US20250340661A1, “ANTI CD40 ANTIBODY, ANTIGEN BINDING FRAGMENT AND MEDICAL USE THEREOF” (Jiangsu Hengrui Pharmaceuticals Co., Ltd., priority 2021, published 2025).
